pIC50: −log10 of the molar value.
Tests used:
[1] = tested on: LN229 gliobastoma cells MGMT−/MMR−; test: Anti-cancer assay, isogenic LN229 cells, nuclei count (Examples 43, 46); type: cell-based; conditions: Homo sapiens, LN-229; MGMT negative/MMR negative; Example 46, maximum concentration 200 μM; read-out: IC50 for causing the death of LN229 cells
[2] = tested on: dogs; test: Animal model toxicity testing in dogs; conditions: tested doses exceeded those at which A1 caused 100% mortality
[3] = tested on: LN229 gliobastoma cells MGMT+/MMR+; test: Anti-cancer assay, isogenic LN229 cells, nuclei count (Example 43); type: cell-based; conditions: Homo sapiens, LN-229; LN229 MGMT+/MMR+; 120 hours; read-out: MGMT+ MMR+ Activity
Source text: (§1) Cytotoxicity of the compounds may be measured in short-term cell viability assays against four isogenic LN229 glioblastoma cell lines engineered to be proficient or deficient in MGMT and/or MMR activity by using short hairpin RNAs (shRNAs) targeting MSH2. This approach allows for determination of the relationship between MGMT status, MMR status, and compound activity. LN229 cells are maintained in Dulbecco's Modified Eagle Medium (DMEM) supplemented with 10% fetal bovine serum, 1% Penicillin/Streptomycin, and 0.1% Fungin. DAY 0: Cells are plated into sterile 96-well plates (Corning Costar 96-well) at a concentration of 500 cells/well using a Multichannel pipettor. Then, assay plates are incubated overnight in a 37° C. 5% CO2 incubator. DAY 1: Compounds are prepared as 50 mM stocks in dimethyl sulfoxide (DMSO) and stored protected from light at room temperature (RT) until use. Prior to compound addition, a two-fold serial dilution of compound stock solutions is performed in DMSO from 30 mM to 0.117 mM in a 96-well Master plate. Vehicle control wells contain DMSO. 97 μL of media is added to each well of a new 96-well plate (Daughter plate) and 3 μL of drug solution from Master plate is added to corresponding wells in the Daughter plate resulting in a 3× plate. Three replicate dilution curves of each compound are run on each assay plate. The final concentration of compounds ranges from 300 μM to 1.171 μM (9-point, 2-fold dilution dose response curve), and the final DMSO concentration is 1%.
(§2) Assay plates are incubated for 120 hours at 37° C. in a humidified 5% CO2 incubator. DAY 5: Following incubation, cells are fixed with 4% paraformaldehyde and stained with Hoechst dye for nuclei visualization. Fixation, staining and washing is performed by using a Thermo Scientific Multidrop Combi. Images are acquired on a BioTek Cytation 5 Cell Imaging Multimode Reader and quantified using Cell Profiler image analysis software. Raw cell count data for test compounds are normalized to percent viability relative to the DMSO vehicle control.
(§3) Isogenic LN229 gliobastoma cells were maintained in Dulbecco's Modified Eagle Medium (DMEM) supplemented with 10% fetal bovine serum, 1% Penicillin/Streptomycin, and 0.1% Fungin. DAY 0: Cells were plated into sterile 96-well plates (Corning Costar 96-well) at a concentration of 500 cells/well using a Multichannel pipettor. Then, assay plates were incubated overnight in a 37° C. 5% CO2 incubator. DAY 1: Compounds were prepared as 50 mM stocks in dimethyl sulfoxide (DMSO) and stored protected from light at room temperature (RT) until use. Prior to compound addition, a two-fold serial dilution of compound stock solutions was performed in DMSO from 30 mM to 0.117 mM in a 96-well Master plate. Vehicle control wells contained DMSO. 97 μL of media was added to each well of a new 96-well plate (Daughter plate) and 3 μL of drug solution from Master plate was added to corresponding wells in the Daughter plate resulting in a 3× plate. Three replicate dilution curves of each compound were run on each assay plate. The final concentration of compounds ranged from 300 μM to 1.171 μM (9-point, 2-fold dilution dose response curve), and the final DMSO concentration was 1%.
as §2, with “plates were” for “plates are”, “cells were” for “cells are”, “washing was” for “washing is”, “Images were” for “Images are”, “compounds were” for “compounds are”

[4] = tested on: LN229 gliobastoma cells MGMT+/MMR−; test: as above; type: cell-based; conditions: Homo sapiens, LN-229; LN229 MGMT+/MMR−; 120 hours; read-out: MGMT+ MMR− Activity
Source text: as §1, §2, §3
as §2, with “plates were” for “plates are”, “cells were” for “cells are”, “washing was” for “washing is”, “Images were” for “Images are”, “compounds were” for “compounds are”

[5] = tested on: 885 barcoded cancer cell lines; test: PRISM multiplexed cell-viability assay (Example 45); type: cell-based; conditions: 5-day treatment; for Log 2 fold change in abundance of the cells: 66.7 μM
Source text: The multiplexed cell-viability platform, PRISM (profiling relative inhibition simultaneously in mixtures), enabled multiplexed screening of Compound I-1 across 900 barcoded cell lines representing more than 45 lineages. Details of the assay technique are described in Yu, C., et al. “High-throughput identification of genotype-specific cancer vulnerabilities in mixtures of barcoded tumor cell lines,” Nat. Biotechnol. 2016, Vol. 34, p. 419-423; and Corsello, S. M., et al. “Discovering the anti-cancer potential of non-oncology drugs by systematic viability profiling,” Nat. Cancer, 2020, Vol. 1, p. 235-248; each of which are hereby incorporated by reference in their entirety.
Briefly, unique oligonucleotide barcodes are stably transduced into individual cancer cell lines. Following barcode transduction, individual cell lines are pooled together in groups of 20-25 based on growth rate similarity, then thawed into 384-well assay-ready plates, and treated with test compound. After 5 days of incubation, isolated mRNA is used to quantify transcribed barcode abundance of each individual cancer cell line to calculate relative viability (Log 2 fold change, “LFC”).
Compound I-1 was screened in the PRISM assay at 8-point dose (3-fold dilution) with a 5-day treatment with 885 cancer cell lines passing QC. Two PRISM cell line collections were used in the assay: PR500 (including only adherent cell lines) and PR300+(including adherent and suspension cell lines). Benchmark compounds (included in the validation compounds) were also tested at doses to ensure high data quality. All compounds were run in triplicate, and each plate contained positive (Bortezomib, 20 μM) and negative (DMSO) controls.

Question: How did the pIC50 [1] turn out when `NC(=O)c1ncn2c(=O)n(CCOC(F)(F)F)nnc12` [Compound I-1, 4-Oxo-3-(2-(trifluoromethoxy)ethyl)-3,4-dihydroimidazo[5,1-d][1,2,3,5]tetrazine-8-carboxamide] was run?
Answer: > 4.70

Question: And the adverse clinical signs [2]?
Answer: no adverse clinical signs were observed

Question: And the pIC50 [3]?
Answer: < 4.00

Question: What about the pIC50 [4] of the same molecule?
Answer: < 4.00

Question: And the “Log 2 fold change in abundance of the cells” value (“Log 2 fold change in abundance” below) ([5]; cell lines of Table 8)?
Answer: −3.5 to −2.0

Question: What about the “Log 2 fold change in abundance” value ([5]; cell lines of Table 9) of the same molecule?
Answer: −2.0 to −1.0

Question: What about the “Log 2 fold change in abundance” value ([5]; cell lines of Table 10) of the same molecule?
Answer: −1.0 to −0.5

Question: And the “Log 2 fold change in abundance” value ([5]; cell lines of Table 11)?
Answer: −0.5 to −0.001

Question: And the anti-cancer effect ([5]; cell lines of Table 12)?
Answer: did not appear to provide an anti-cancer effect

Source: US20250066371A1, “FLUOROALKOXYALKYLENE-DIHYDROIMIDAZO[5,1-D]TETRAZINONE COMPOUNDS AND RELATED COMPOUNDS AND THEIR USE IN TREATING MEDICAL CONDITIONS” (priority 2023, published 2025)
